From PMC12567244, “Innovative Amino-Functionalization of Pyrido[2,3-d]pyrimidine Scaffolds for Broad Therapeutic Applications Supported by Computational Analyses” (Pharmaceuticals, 2025)
In brackets after ≈: the same amount, converted by molar mass. Several values for one entry are separate records, joined by “and”; a condition that tells them apart may be missing. Equal entries are not always repeated. Where two headings read alike, the source gives them in different places. Values belong to the molecule of their own block, whether it stands above or below them.

Legend:
MCF-7 cells [1] = assay: Cell cycle analysis by flow cytometry; assay type: cell-based, human; settings: MCF-7, 48 h incubation
MCF-7 cells [2] = assay: Annexin V-FITC/PI apoptosis analysis; assay type: cell-based, human; settings: MCF-7, 48 h
MCF-7 cells [3] = assay: Wound healing (scratch) assay; assay type: cell-based, human
E. coli ATCC25915 = assay: MIC, two-fold serial dilution, E. coli; assay type: cell-based; settings: Escherichia coli
S. aureus ATCC25923 = assay: MIC, two-fold serial dilution, S. aureus; assay type: cell-based, Staphylococcus aureus; settings: for MIC: Staphylococcus aureus, ATCC25923
E. faecalis ATCC29212 [4] = assay: MIC, two-fold serial dilution, E. faecalis; assay type: cell-based, Enterococcus faecalis; settings: Enterococcus faecalis, ATCC29212
P. aeruginosa ATCC10145 [5] = assay: MIC, two-fold serial dilution, P. aeruginosa; assay type: cell-based; settings: Pseudomonas aeruginosa
mutant EGFRL858R [6] = target: T1, mutant EGFRL858R (Homo sapiens, UniProt P00533, L858R); settings: for Fold-Change L858R/WT: potency relative to wild-type EGFR
T1 sequence (P00533 25-1210 L858R): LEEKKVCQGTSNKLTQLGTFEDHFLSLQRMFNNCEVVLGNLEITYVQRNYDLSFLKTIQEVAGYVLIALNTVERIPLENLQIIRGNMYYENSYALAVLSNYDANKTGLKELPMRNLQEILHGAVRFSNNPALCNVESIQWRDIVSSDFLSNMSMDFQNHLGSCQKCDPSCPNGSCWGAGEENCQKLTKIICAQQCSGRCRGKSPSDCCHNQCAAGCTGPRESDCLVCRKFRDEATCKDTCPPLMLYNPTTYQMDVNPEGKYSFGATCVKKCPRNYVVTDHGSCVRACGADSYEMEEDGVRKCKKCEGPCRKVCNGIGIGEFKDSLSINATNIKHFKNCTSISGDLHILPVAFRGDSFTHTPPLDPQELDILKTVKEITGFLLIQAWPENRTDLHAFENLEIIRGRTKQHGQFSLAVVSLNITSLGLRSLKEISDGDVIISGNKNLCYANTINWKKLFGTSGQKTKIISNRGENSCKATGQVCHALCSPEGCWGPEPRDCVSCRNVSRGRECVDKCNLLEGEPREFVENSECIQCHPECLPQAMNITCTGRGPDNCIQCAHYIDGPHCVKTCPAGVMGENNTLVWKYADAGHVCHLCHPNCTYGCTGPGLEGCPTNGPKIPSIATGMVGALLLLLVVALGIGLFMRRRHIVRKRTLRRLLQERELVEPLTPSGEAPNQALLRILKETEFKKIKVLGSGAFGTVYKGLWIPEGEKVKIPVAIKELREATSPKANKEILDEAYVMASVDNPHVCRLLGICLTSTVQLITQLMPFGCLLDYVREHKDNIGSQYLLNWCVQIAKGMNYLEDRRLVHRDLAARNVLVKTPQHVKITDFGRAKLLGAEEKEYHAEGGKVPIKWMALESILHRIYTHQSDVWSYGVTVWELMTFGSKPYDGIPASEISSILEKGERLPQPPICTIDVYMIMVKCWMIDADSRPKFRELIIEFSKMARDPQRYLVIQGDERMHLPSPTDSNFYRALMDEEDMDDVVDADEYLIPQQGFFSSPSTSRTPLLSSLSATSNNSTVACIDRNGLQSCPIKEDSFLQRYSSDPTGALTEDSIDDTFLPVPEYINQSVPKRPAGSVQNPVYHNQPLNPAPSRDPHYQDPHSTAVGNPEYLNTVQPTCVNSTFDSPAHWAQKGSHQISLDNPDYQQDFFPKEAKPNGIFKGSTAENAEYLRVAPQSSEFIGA

EGFRT790M [7] = target: T2, EGFRT790M (Homo sapiens, UniProt P00533, T790M)
T2 sequence (P00533 25-1210 T790M): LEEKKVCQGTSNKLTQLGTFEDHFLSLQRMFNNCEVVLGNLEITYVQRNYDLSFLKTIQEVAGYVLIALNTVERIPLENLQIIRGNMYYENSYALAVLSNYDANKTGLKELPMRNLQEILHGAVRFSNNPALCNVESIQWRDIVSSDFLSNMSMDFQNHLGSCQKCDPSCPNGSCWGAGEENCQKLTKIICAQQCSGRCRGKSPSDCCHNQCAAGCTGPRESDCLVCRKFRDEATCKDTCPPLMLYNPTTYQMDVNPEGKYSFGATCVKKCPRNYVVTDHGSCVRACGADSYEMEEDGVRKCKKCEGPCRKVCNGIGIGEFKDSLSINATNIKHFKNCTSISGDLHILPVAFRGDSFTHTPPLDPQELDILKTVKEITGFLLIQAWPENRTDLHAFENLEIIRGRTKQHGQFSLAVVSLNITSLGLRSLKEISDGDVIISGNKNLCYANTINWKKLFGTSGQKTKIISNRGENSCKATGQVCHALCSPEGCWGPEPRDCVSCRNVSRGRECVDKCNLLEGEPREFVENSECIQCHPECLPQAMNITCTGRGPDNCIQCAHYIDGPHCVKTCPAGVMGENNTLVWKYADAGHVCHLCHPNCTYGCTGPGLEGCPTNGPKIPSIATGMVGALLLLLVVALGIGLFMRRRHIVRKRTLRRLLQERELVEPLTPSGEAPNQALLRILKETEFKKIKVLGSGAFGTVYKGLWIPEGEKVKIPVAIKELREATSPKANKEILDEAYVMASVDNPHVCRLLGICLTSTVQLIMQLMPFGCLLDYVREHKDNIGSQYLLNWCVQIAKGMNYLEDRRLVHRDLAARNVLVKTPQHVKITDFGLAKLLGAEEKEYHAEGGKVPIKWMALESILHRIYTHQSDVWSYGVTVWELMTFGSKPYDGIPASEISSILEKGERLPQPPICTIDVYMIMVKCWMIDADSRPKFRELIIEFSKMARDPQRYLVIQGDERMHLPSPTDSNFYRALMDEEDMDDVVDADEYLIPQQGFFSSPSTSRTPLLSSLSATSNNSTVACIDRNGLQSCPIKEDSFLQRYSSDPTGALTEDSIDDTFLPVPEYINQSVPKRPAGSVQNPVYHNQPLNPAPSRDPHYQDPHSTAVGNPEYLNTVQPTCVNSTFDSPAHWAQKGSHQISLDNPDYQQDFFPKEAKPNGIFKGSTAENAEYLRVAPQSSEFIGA

in vitro = settings: human, WI-38 normal lung fibroblast cells
mutant EGFRL858R [8] = target: T1, mutant EGFRL858R; assay: biochemical
EGFRT790M [9] = target: T2, EGFRT790M; assay: biochemical
[10] = system: cervical carcinoma (HeLa); assay: MTT cytotoxicity assay, HeLa; settings: for SI HeLa: IC50 WI-38 / IC50 HeLa; for IC50: read-out: IC50 HeLa, MTT, mean ± SD of three measurements
breast carcinoma (MCF-7) = assay: MTT cytotoxicity assay, MCF-7; settings: for SI MCF-7: IC50 WI-38 / IC50 MCF-7; for IC50: read-out: IC50 MCF-7, MTT, mean ± SD of three measurements
liver carcinoma (HepG-2) = assay: MTT cytotoxicity assay, HepG-2; settings: for SI HepG-2: IC50 WI-38 / IC50 HepG-2; for IC50: read-out: IC50 HepG-2, MTT, mean ± SD of three measurements
EGFRWT = EGFRWT (Homo sapiens, UniProt P00533); assay: HTRF enzyme inhibitory assay, EGFR WT
Chain of EGFRWT (P00533 25-1210): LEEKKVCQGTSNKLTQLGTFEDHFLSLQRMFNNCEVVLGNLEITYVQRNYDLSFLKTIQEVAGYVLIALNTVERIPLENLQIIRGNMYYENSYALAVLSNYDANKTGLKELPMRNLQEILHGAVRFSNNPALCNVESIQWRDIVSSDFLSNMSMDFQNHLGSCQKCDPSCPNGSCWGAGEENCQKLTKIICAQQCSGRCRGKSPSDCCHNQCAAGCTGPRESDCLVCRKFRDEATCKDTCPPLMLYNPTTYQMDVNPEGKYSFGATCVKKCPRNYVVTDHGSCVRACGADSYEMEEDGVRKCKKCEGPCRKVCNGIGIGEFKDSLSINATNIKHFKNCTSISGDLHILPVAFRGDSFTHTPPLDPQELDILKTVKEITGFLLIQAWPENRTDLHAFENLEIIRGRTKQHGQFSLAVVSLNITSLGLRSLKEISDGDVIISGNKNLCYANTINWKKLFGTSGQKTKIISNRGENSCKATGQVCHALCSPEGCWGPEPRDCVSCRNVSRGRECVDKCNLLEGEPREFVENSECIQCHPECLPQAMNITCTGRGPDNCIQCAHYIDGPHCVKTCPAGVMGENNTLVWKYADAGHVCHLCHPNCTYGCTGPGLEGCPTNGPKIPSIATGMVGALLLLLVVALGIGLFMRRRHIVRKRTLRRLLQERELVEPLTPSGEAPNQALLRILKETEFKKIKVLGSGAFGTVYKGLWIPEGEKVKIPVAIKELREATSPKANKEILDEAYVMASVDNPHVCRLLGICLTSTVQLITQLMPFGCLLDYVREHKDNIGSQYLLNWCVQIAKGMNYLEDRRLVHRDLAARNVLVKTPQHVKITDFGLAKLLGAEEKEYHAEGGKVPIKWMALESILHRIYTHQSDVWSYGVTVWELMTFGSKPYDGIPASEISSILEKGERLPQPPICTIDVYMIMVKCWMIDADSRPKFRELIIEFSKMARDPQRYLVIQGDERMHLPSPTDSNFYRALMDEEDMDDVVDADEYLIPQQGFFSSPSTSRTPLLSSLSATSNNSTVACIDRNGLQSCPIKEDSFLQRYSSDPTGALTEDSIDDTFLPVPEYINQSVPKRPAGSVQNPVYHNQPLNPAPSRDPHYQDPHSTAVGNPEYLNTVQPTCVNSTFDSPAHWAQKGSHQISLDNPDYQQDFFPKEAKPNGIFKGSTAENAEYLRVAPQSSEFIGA

E.coli ATCC25915 = assay: Well diffusion inhibition zone, E. coli; settings: Escherichia coli, ATCC25915, read-out: Inhibition zone E.coli ATCC25915
E. faecalis ATCC29212 [11] = assay: Well diffusion inhibition zone, E. faecalis; settings: Enterococcus faecalis, ATCC29212, read-out: Inhibition zone E. faecalis ATCC29212
P. aeruginosa ATCC10145 [12] = assay: Well diffusion inhibition zone, P. aeruginosa; settings: Pseudomonas aeruginosa, ATCC10145, read-out: Inhibition zone P. aeruginosa ATCC10145
HeLa, HepG-2, and MCF-7 = assay: MTT cytotoxicity, range over the cancer cell panel; settings: read-out: IC50 across HeLa, HepG-2 and MCF-7; range over all examined cancer cell lines

Compound: CCOC(=O)c1c(N)nc2c(c1-c1ccc(Cl)cc1)c(=O)n(C)c(=O)n2C [Compound 1, Ethyl 7-amino-5-(4-chlorophenyl)-1,3-dimethyl-2,4-dioxo-1,2,3,4-tetrahydropyrido[2,3-d]pyrimidine-6-carboxylate]
- %G0-G1 (MCF-7 cells [1]): 74.86%
- %G2/M (MCF-7 cells [1]): 1.75%
- %S (MCF-7 cells [1]): 22.79%
- Apoptosis Early (MCF-7 cells [2]): 5.86%
- Apoptosis Late (MCF-7 cells [2]): 16.62%
- Apoptosis Total (MCF-7 cells [2]): 26.37%
- Necrosis (MCF-7 cells [2]): 3.89%
- Length of migration (MCF-7 cells [3]; MCF-7, 72 h): 0.31–0.32 mm
- Migrated cells area (MCF-7 cells [3]; MCF-7, 72 h): 0.564 mm^2
- Length of migration (MCF-7 cells [3]; MCF-7, 72 h, listed as U1): 0.31 mm
- % Closure (wound closure) (MCF-7 cells [3]; MCF-7, after 72 h): 69.63% and 69.63 ± 2.57%
- MIC (E. coli ATCC25915): 50 µg/mL (≈ 129 µM)
- MIC (S. aureus ATCC25923): 100 µg/mL (≈ 257 µM)
- MIC (E. faecalis ATCC29212 [4]): 100 µg/mL (≈ 257 µM)
- MIC (P. aeruginosa ATCC10145 [5]): 50 µg/mL (≈ 129 µM)
- %inh EGFR_L858R (mutant EGFRL858R [6]; conc 0.01): 9.88%
- %inh EGFR_L858R (mutant EGFRL858R [6]; conc 0.1): 23.7%
- %inh EGFR_L858R (mutant EGFRL858R [6]; conc 1): 40%
- %inh EGFR_L858R (mutant EGFRL858R [6]; conc 10): 75.6%
- %inh EGFR_L858R (mutant EGFRL858R [6]; conc 100): 93.7%
- Fold-Change L858R/WT (mutant EGFRL858R [6]): 12 × and 12.44×
- %inh EGFR_T790M (EGFRT790M [7]; conc 0.01): 22.1%
- %inh EGFR_T790M (EGFRT790M [7]; conc 0.1): 51.1%
- %inh EGFR_T790M (EGFRT790M [7]; conc 1): 66.5%
- %inh EGFR_T790M (EGFRT790M [7]; conc 10): 82.2%
- %inh EGFR_T790M (EGFRT790M [7]; conc 100): 96.1%
- IC50 at 48 h (in vitro): 81.7 ± 4.1 µM
- IC50 (mutant EGFRL858R [8]): 1160 ± 36 nM
- IC50 (EGFRT790M [9]): 174 ± 6 nM
- SI HeLa [10]: 12.98
- IC50 [10]: 6.29 ± 0.5 µM
- SI MCF-7 (breast carcinoma (MCF-7)): 20.51
- IC50 (breast carcinoma (MCF-7)): 3.98 ± 0.2 µM
- SI HepG-2 (liver carcinoma (HepG-2)): 13.83
- IC50 (liver carcinoma (HepG-2)): 5.9 ± 0.3 µM
- IC50 (EGFRWT): 93 ± 3 nM
- %inh EGFR WT (EGFRWT; conc 0.01): 29.6%
- %inh EGFR WT (EGFRWT; conc 0.1): 51%
- %inh EGFR WT (EGFRWT; conc 1): 74.5%
- %inh EGFR WT (EGFRWT; conc 10): 85.3%
- %inh EGFR WT (EGFRWT; conc 100): 96.1%
- zone of inhibition at 100 µg/mL (E.coli ATCC25915): 9.5 ± 0.12 mm
- zone of inhibition at 100 µg/mL (E. faecalis ATCC29212 [11]): 2 ± 0.05 mm
- zone of inhibition at 100 µg/mL (P. aeruginosa ATCC10145 [12]): 10.5 ± 0.05 mm
- IC50 (HeLa, HepG-2, and MCF-7): 3.98 to 6.29 µM

Compound: Cn1c(=O)c2c(-c3ccc(Cl)cc3)c(C(=O)NN)c(N)nc2n(C)c1=O [Compound 2, 7-Amino-5-(4-chlorophenyl)-1,3-dimethyl-2,4-dioxo-1,2,3,4-tetrahydropyrido[2,3-d]pyrimidine 6-carbohydrazide]
- %inh EGFR_L858R (mutant EGFRL858R [6]; conc 0.01): 6.07%
- %inh EGFR_L858R (mutant EGFRL858R [6]; conc 0.1): 19%
- %inh EGFR_L858R (mutant EGFRL858R [6]; conc 1): 43.5%
- %inh EGFR_L858R (mutant EGFRL858R [6]; conc 10): 68.3%
- %inh EGFR_L858R (mutant EGFRL858R [6]; conc 100): 90.7%
- Fold-Change L858R/WT (mutant EGFRL858R [6]): 7.5 × and 7.56×
- Fold-Change T790M/WT (EGFRT790M [7]; potency relative to wild-type EGFR): 4.03×
- IC50 at 48 h (in vitro): 64.1 ± 3.5 µM
- IC50 (mutant EGFRL858R [8]): 1600 ± 50 nM
- IC50 (EGFRT790M [9]): 854 ± 27 nM
- SI HeLa [10]: 8.6
- IC50 [10]: 7.54 ± 0.7 µM
- SI MCF-7 (breast carcinoma (MCF-7)): 7.44
- IC50 (breast carcinoma (MCF-7)): 8.61 ± 0.6 µM
- SI HepG-2 (liver carcinoma (HepG-2)): 4.95
- IC50 (liver carcinoma (HepG-2)): 12.9 ± 1 µM
- IC50 (EGFRWT): 212 ± 7 nM
- %inh EGFR WT (EGFRWT; conc 0.01): 24.6%
- %inh EGFR WT (EGFRWT; conc 0.1): 42.5%
- %inh EGFR WT (EGFRWT; conc 1): 67.1%
- %inh EGFR WT (EGFRWT; conc 10): 81.4%
- %inh EGFR WT (EGFRWT; conc 100): 94.6%
- IC50 (HeLa, HepG-2, and MCF-7): 7.54 to 12.9 µM

- MIC (E. coli ATCC25915): 50 µg/mL (≈ 111 µM)
- MIC S. aureus ATCC25923 (S. aureus ATCC25923): >100 µg/mL
- MIC (S. aureus ATCC25923): > 100 µg/mL
- MIC (E. faecalis ATCC29212 [4]): 100 µg/mL (≈ 222 µM)
- MIC (P. aeruginosa ATCC10145 [5]): 50 µg/mL (≈ 111 µM)
- %inh EGFR_T790M (EGFRT790M [7]; conc 0.01): 6.2%
- %inh EGFR_T790M (EGFRT790M [7]; conc 0.1): 29.8%
- %inh EGFR_T790M (EGFRT790M [7]; conc 1): 52.9%
- %inh EGFR_T790M (EGFRT790M [7]; conc 10): 75.1%
- %inh EGFR_T790M (EGFRT790M [7]; conc 100): 93.5%
- IC50 at 48 h (in vitro): 18.2 ± 1.4 µM
Compound: Cn1c(=O)c2c(-c3ccc(Cl)cc3)c(C3=NN=C4N=CN=C(N)C43)c(N)nc2n(C)c1=O (stereo not shown) [Compound 12, 7-Amino-6-(4-amino-3aH-pyrazolo [3,4-d]pyrimidin-3-yl)-5-(4-chlorophenyl)-1,3-dimethylpyrido[2,3-d]pyrimidine-2,4(1H,3H)-dione]
- SI HeLa [10]: 0.41
- IC50 [10]: 44.2 ± 2.6 µM
- SI MCF-7 (breast carcinoma (MCF-7)): 0.31
- IC50 (breast carcinoma (MCF-7)): 58.8 ± 3.3 µM
- SI HepG-2 (liver carcinoma (HepG-2)): 0.33
- IC50 (liver carcinoma (HepG-2)): 54.3 ± 3.2 µM
- zone of inhibition at 100 µg/mL (E.coli ATCC25915): 10.4 ± 0.08 mm
- zone of inhibition at 100 µg/mL (E. faecalis ATCC29212 [11]): 2 ± 0.05 mm
- zone of inhibition at 100 µg/mL (P. aeruginosa ATCC10145 [12]): 10.5 mm
